Measurements taken from the supplement of paper PMC4862054.

test system: HDQ-P1; assay: normalised response (% of control), CellTox Green; higher = less cell death (100 = DMSO, 0 = benzethonium chloride kill control); conditions: incubation time: 72 h
How it was run: (§1)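 For each plate, 0.1 % DMSO was set to 100 and a positive kill control to 0. Breast cancer cell lines (20 µl suspension) were seeded into 384-well plates already holding compound at 5 concentrations in 10-fold steps over a 10,000-fold range chosen per compound, and incubated for 72 h. CellTox Green fluorescence at 485/520 nm was read before CellTiter-Glo luminescence, which followed 10 min at room temperature. Each value is the normalised signal at one concentration.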

SMILES | normalised response [%]
O=S(=O)(c1cccc2cnccc12)N1CCCNCC1 [Fasudil] (500 nM) | 102
Nc1cccc2c1CN(C1CCC(=O)NC1=O)C2=O (stereo unspecified) [Lenalidomide] (100 nM) | 100
Nc1ccccc1NC(=O)c1ccc(CNc2nccc(-c3cccnc3)n2)cc1 [Mocetinostat] (100 nM) | 104
Cc1ccc(Nc2nccc(N(C)c3ccc4c(C)n(C)nc4c3)n2)cc1S(N)(=O)=O [Pazopanib] (100 nM) | 109
O=C(NC[C@H](O)CO)c1ccncc1Nc1ccc(I)cc1F [Pimasertib] (100 nM) | 104

test system: HCC1143; assay: as above; conditions: incubation time: 72 h
How it was run: as §1

SMILES | normalised response [%]
COc1ccc(-c2cc3c(C)nc(N)nc3n([C@H]3CC[C@H](OCCO)CC3)c2=O)cn1 (100 nM) | 66.1
CC/C(=C(\c1ccc(O)cc1)c1ccc(OCCN(C)C)cc1)c1ccccc1 [4-hydroxytamoxifen] (100 nM) | 115
O=C(Nc1c[nH]nc1-c1nc2ccc(CN3CCOCC3)cc2[nH]1)NC1CC1 [AT9283] (10 nM) | 108
CO[C@@H](C(=O)N1Cc2[nH]nc(NC(=O)c3ccc(N4CCN(C)CC4)cc3)c2C1)c1ccccc1 [Danusertib] (100 nM) | 111
O=S(=O)(c1cccc2cnccc12)N1CCCNCC1 [Fasudil] (500 nM) | 75
Nc1cccc2c1CN(C1CCC(=O)NC1=O)C2=O (stereo unspecified) [Lenalidomide] (100 nM) | 92.4
Nc1ccccc1NC(=O)c1ccc(CNc2nccc(-c3cccnc3)n2)cc1 [Mocetinostat] (100 nM) | 101
Cc1ccc(Nc2nccc(N(C)c3ccc4c(C)n(C)nc4c3)n2)cc1S(N)(=O)=O [Pazopanib] (100 nM) | 98
O=C(NC[C@H](O)CO)c1ccncc1Nc1ccc(I)cc1F [Pimasertib] (100 nM) | 99.8

test system: BT-549; assay: as above; conditions: incubation time: 72 h
How it was run: as §1

SMILES | normalised response [%]
COc1ccc(-c2cc3c(C)nc(N)nc3n([C@H]3CC[C@H](OCCO)CC3)c2=O)cn1 (100 nM) | 112
CC/C(=C(\c1ccc(O)cc1)c1ccc(OCCN(C)C)cc1)c1ccccc1 [4-hydroxytamoxifen] (100 nM) | 104
O=C(Nc1c[nH]nc1-c1nc2ccc(CN3CCOCC3)cc2[nH]1)NC1CC1 [AT9283] (10 nM) | 105
CO[C@@H](C(=O)N1Cc2[nH]nc(NC(=O)c3ccc(N4CCN(C)CC4)cc3)c2C1)c1ccccc1 [Danusertib] (100 nM) | 101
O=S(=O)(c1cccc2cnccc12)N1CCCNCC1 [Fasudil] (500 nM) | 91.3
Nc1cccc2c1CN(C1CCC(=O)NC1=O)C2=O (stereo unspecified) [Lenalidomide] (100 nM) | 99.6
Nc1ccccc1NC(=O)c1ccc(CNc2nccc(-c3cccnc3)n2)cc1 [Mocetinostat] (100 nM) | 99.1
Cc1ccc(Nc2nccc(N(C)c3ccc4c(C)n(C)nc4c3)n2)cc1S(N)(=O)=O [Pazopanib] (100 nM) | 98.1
O=C(NC[C@H](O)CO)c1ccncc1Nc1ccc(I)cc1F [Pimasertib] (100 nM) | 59.3

test system: MDA-MB-231; assay: as above; conditions: incubation time: 72 h
How it was run: as §1

SMILES | normalised response [%]
COc1ccc(-c2cc3c(C)nc(N)nc3n([C@H]3CC[C@H](OCCO)CC3)c2=O)cn1 (100 nM) | 37.5
CC/C(=C(\c1ccc(O)cc1)c1ccc(OCCN(C)C)cc1)c1ccccc1 [4-hydroxytamoxifen] (100 nM) | 117
O=C(Nc1c[nH]nc1-c1nc2ccc(CN3CCOCC3)cc2[nH]1)NC1CC1 [AT9283] (10 nM) | 98.2
O=S(=O)(c1cccc2cnccc12)N1CCCNCC1 [Fasudil] (500 nM) | 101
Nc1cccc2c1CN(C1CCC(=O)NC1=O)C2=O (stereo unspecified) [Lenalidomide] (100 nM) | 105
Nc1ccccc1NC(=O)c1ccc(CNc2nccc(-c3cccnc3)n2)cc1 [Mocetinostat] (100 nM) | 89.2
Cc1ccc(Nc2nccc(N(C)c3ccc4c(C)n(C)nc4c3)n2)cc1S(N)(=O)=O [Pazopanib] (100 nM) | 100
O=C(NC[C@H](O)CO)c1ccncc1Nc1ccc(I)cc1F [Pimasertib] (100 nM) | 59.1

test system: MDA-MB-453; assay: as above; conditions: incubation time: 72 h
How it was run: as §1

SMILES | normalised response [%]
COc1ccc(-c2cc3c(C)nc(N)nc3n([C@H]3CC[C@H](OCCO)CC3)c2=O)cn1 (100 nM) | 98.1
CC/C(=C(\c1ccc(O)cc1)c1ccc(OCCN(C)C)cc1)c1ccccc1 [4-hydroxytamoxifen] (100 nM) | 111
O=C(Nc1c[nH]nc1-c1nc2ccc(CN3CCOCC3)cc2[nH]1)NC1CC1 [AT9283] (10 nM) | 103
CO[C@@H](C(=O)N1Cc2[nH]nc(NC(=O)c3ccc(N4CCN(C)CC4)cc3)c2C1)c1ccccc1 [Danusertib] (100 nM) | 97.7
O=S(=O)(c1cccc2cnccc12)N1CCCNCC1 [Fasudil] (500 nM) | 99.9
Nc1cccc2c1CN(C1CCC(=O)NC1=O)C2=O (stereo unspecified) [Lenalidomide] (100 nM) | 100
Nc1ccccc1NC(=O)c1ccc(CNc2nccc(-c3cccnc3)n2)cc1 [Mocetinostat] (100 nM) | 98.1
Cc1ccc(Nc2nccc(N(C)c3ccc4c(C)n(C)nc4c3)n2)cc1S(N)(=O)=O [Pazopanib] (100 nM) | 97.4
O=C(NC[C@H](O)CO)c1ccncc1Nc1ccc(I)cc1F [Pimasertib] (100 nM) | 99.4

test system: CAL-85-1; assay: as above; conditions: incubation time: 72 h
How it was run: as §1

SMILES | normalised response [%]
COc1ccc(-c2cc3c(C)nc(N)nc3n([C@H]3CC[C@H](OCCO)CC3)c2=O)cn1 (100 nM) | 91.3
CC/C(=C(\c1ccc(O)cc1)c1ccc(OCCN(C)C)cc1)c1ccccc1 [4-hydroxytamoxifen] (100 nM) | 113
O=C(Nc1c[nH]nc1-c1nc2ccc(CN3CCOCC3)cc2[nH]1)NC1CC1 [AT9283] (10 nM) | 102
CO[C@@H](C(=O)N1Cc2[nH]nc(NC(=O)c3ccc(N4CCN(C)CC4)cc3)c2C1)c1ccccc1 [Danusertib] (100 nM) | 86.5
O=S(=O)(c1cccc2cnccc12)N1CCCNCC1 [Fasudil] (500 nM) | 95.6
Nc1cccc2c1CN(C1CCC(=O)NC1=O)C2=O (stereo unspecified) [Lenalidomide] (100 nM) | 101
Nc1ccccc1NC(=O)c1ccc(CNc2nccc(-c3cccnc3)n2)cc1 [Mocetinostat] (100 nM) | 97.4
Cc1ccc(Nc2nccc(N(C)c3ccc4c(C)n(C)nc4c3)n2)cc1S(N)(=O)=O [Pazopanib] (100 nM) | 103
O=C(NC[C@H](O)CO)c1ccncc1Nc1ccc(I)cc1F [Pimasertib] (100 nM) | 91.4

test system: CAL-148; assay: as above; conditions: incubation time: 72 h
How it was run: as §1

SMILES | normalised response [%]
COc1ccc(-c2cc3c(C)nc(N)nc3n([C@H]3CC[C@H](OCCO)CC3)c2=O)cn1 (100 nM) | 80.1
CC/C(=C(\c1ccc(O)cc1)c1ccc(OCCN(C)C)cc1)c1ccccc1 [4-hydroxytamoxifen] (100 nM) | 99.1
O=C(Nc1c[nH]nc1-c1nc2ccc(CN3CCOCC3)cc2[nH]1)NC1CC1 [AT9283] (10 nM) | 106
CO[C@@H](C(=O)N1Cc2[nH]nc(NC(=O)c3ccc(N4CCN(C)CC4)cc3)c2C1)c1ccccc1 [Danusertib] (100 nM) | 69.4
O=S(=O)(c1cccc2cnccc12)N1CCCNCC1 [Fasudil] (500 nM) | 69.2
Nc1cccc2c1CN(C1CCC(=O)NC1=O)C2=O (stereo unspecified) [Lenalidomide] (100 nM) | 104
Cc1ccc(Nc2nccc(N(C)c3ccc4c(C)n(C)nc4c3)n2)cc1S(N)(=O)=O [Pazopanib] (100 nM) | 96
O=C(NC[C@H](O)CO)c1ccncc1Nc1ccc(I)cc1F [Pimasertib] (100 nM) | 107

test system: CAL-51; assay: as above; conditions: incubation time: 72 h
How it was run: as §1

SMILES | normalised response [%]
COc1ccc(-c2cc3c(C)nc(N)nc3n([C@H]3CC[C@H](OCCO)CC3)c2=O)cn1 (100 nM) | 85.1
CC/C(=C(\c1ccc(O)cc1)c1ccc(OCCN(C)C)cc1)c1ccccc1 [4-hydroxytamoxifen] (100 nM) | 98.1
O=C(Nc1c[nH]nc1-c1nc2ccc(CN3CCOCC3)cc2[nH]1)NC1CC1 [AT9283] (10 nM) | 61.2
CO[C@@H](C(=O)N1Cc2[nH]nc(NC(=O)c3ccc(N4CCN(C)CC4)cc3)c2C1)c1ccccc1 [Danusertib] (100 nM) | 62.2
O=S(=O)(c1cccc2cnccc12)N1CCCNCC1 [Fasudil] (500 nM) | 102
Nc1cccc2c1CN(C1CCC(=O)NC1=O)C2=O (stereo unspecified) [Lenalidomide] (100 nM) | 76.4
Nc1ccccc1NC(=O)c1ccc(CNc2nccc(-c3cccnc3)n2)cc1 [Mocetinostat] (100 nM) | 82
Cc1ccc(Nc2nccc(N(C)c3ccc4c(C)n(C)nc4c3)n2)cc1S(N)(=O)=O [Pazopanib] (100 nM) | 104
O=C(NC[C@H](O)CO)c1ccncc1Nc1ccc(I)cc1F [Pimasertib] (100 nM) | 107

test system: HCC1937; assay: as above; conditions: incubation time: 72 h
How it was run: as §1

SMILES | normalised response [%]
COc1ccc(-c2cc3c(C)nc(N)nc3n([C@H]3CC[C@H](OCCO)CC3)c2=O)cn1 (100 nM) | 107
CC/C(=C(\c1ccc(O)cc1)c1ccc(OCCN(C)C)cc1)c1ccccc1 [4-hydroxytamoxifen] (100 nM) | 89.2
O=C(Nc1c[nH]nc1-c1nc2ccc(CN3CCOCC3)cc2[nH]1)NC1CC1 [AT9283] (10 nM) | 123
CO[C@@H](C(=O)N1Cc2[nH]nc(NC(=O)c3ccc(N4CCN(C)CC4)cc3)c2C1)c1ccccc1 [Danusertib] (100 nM) | 93.8
O=S(=O)(c1cccc2cnccc12)N1CCCNCC1 [Fasudil] (500 nM) | 83.3
Cc1ccc(Nc2nccc(N(C)c3ccc4c(C)n(C)nc4c3)n2)cc1S(N)(=O)=O [Pazopanib] (100 nM) | 66.2
O=C(NC[C@H](O)CO)c1ccncc1Nc1ccc(I)cc1F [Pimasertib] (100 nM) | 101

test system: HCC1599; assay: normalised response (% of control), CellTiter-Glo; higher = more viable cells (100 = DMSO, 0 = benzethonium chloride kill control); conditions: incubation time: 72 h
Procedure: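 DSRT, 72 h incubation, CellTox Green / CellTiter-Glo readout. Signal is normalised to DMSO and benzethonium chloride controls. Value is the normalised response at dose 3.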

SMILES | normalised response [%]
COc1ccc(-c2cc3c(C)nc(N)nc3n([C@H]3CC[C@H](OCCO)CC3)c2=O)cn1 (100 nM) | 88.3
CC/C(=C(\c1ccc(O)cc1)c1ccc(OCCN(C)C)cc1)c1ccccc1 [4-hydroxytamoxifen] (100 nM) | 91.5
O=C(Nc1c[nH]nc1-c1nc2ccc(CN3CCOCC3)cc2[nH]1)NC1CC1 [AT9283] (10 nM) | 95.2
CO[C@@H](C(=O)N1Cc2[nH]nc(NC(=O)c3ccc(N4CCN(C)CC4)cc3)c2C1)c1ccccc1 [Danusertib] (100 nM) | 105
O=S(=O)(c1cccc2cnccc12)N1CCCNCC1 [Fasudil] (500 nM) | 107
Nc1cccc2c1CN(C1CCC(=O)NC1=O)C2=O (stereo unspecified) [Lenalidomide] (100 nM) | 111
Nc1ccccc1NC(=O)c1ccc(CNc2nccc(-c3cccnc3)n2)cc1 [Mocetinostat] (100 nM) | 97.2
Cc1ccc(Nc2nccc(N(C)c3ccc4c(C)n(C)nc4c3)n2)cc1S(N)(=O)=O [Pazopanib] (100 nM) | 103
